Assay results: patent US20260130933A1, “PHARMACEUTICAL COMPOSITION FOR PREVENTION OR TREATMENT OF NEPHROPATHY AND/OR DIABETES MELLITUS, COMPRISING ENAVOGLIFLOZIN” (DAEWOONG PHARMACEUTICAL CO., LTD., priority 2022, published 2026)

Test: Example 1: phase 3 trial, enavogliflozin 0.3 mg once a day as monotherapy vs placebo for 24 weeks in patients with type 2 diabetes (HbA1c, FPG, C-peptide, body weight, lipids, blood pressure, HOMA, UACR, UGCR, adiponectin, leptin, safety)
Type: in vivo, human
Details: for Change from baseline in HOMA-IR, ANCOVA LS mean difference / Change from baseline in HOMA-β, ANCOVA LS mean difference / Change from baseline in UACR, ANCOVA LS mean difference / Change from baseline in UGCR, ANCOVA LS mean difference / Change from baseline in adiponectin, ANCOVA LS mean difference / Change from baseline in leptin, ANCOVA LS mean difference: 0.3 mg vs placebo
Procedure: When a subject voluntarily gave written consent to participate in this clinical trial, a screening test was conducted. […] However, when the administration of a hypoglycemic agent was interrupted before the clinical trial Visit 1 (screening), at least an 8-week washout period, including the discontinuation period, was required, and during this period, a stable diet and exercise program was followed. Naïve patients were screened without a separate washout period, and the criteria for naïve patients were defined as patients who had not been administered hypoglycemic agents within 24 weeks prior to the date of obtaining written consent. […] In addition, they were instructed to maintain regular exercise and dietary control starting from 8 weeks prior to screening without changing their daily life patterns during the clinical trial period.

[1] = Week 18, LOCF, full analysis set, 0.3 mg
[2] = Week 18, LOCF, full analysis set
[3] = Week 24, LOCF, full analysis set, 0.3 mg
[4] = Week 24, LOCF, full analysis set

For OC[C@H]1O[C@@H](c2cc(Cc3ccc(C4CC4)cc3)c(Cl)c3c2CCO3)[C@H](O)[C@@H](O)[C@@H]1O [Enavogliflozin, (2S,3R,4R,5S,6R)-2-(7-chloro-6 (4-cyclopropylbenzyl)-2,3-dihydrobenzofuran-4-yl)-6-(hydroxymethyl)tetrahydro-2H-pyran-3,4,5-triol], the “Change from baseline in HOMA-IR, Median” value [1] was −1.10, the “Change from baseline in HOMA-β, ANCOVA LS mean (SE)” value [1] was 28.64 and the “Change from baseline in HOMA-β, Mean (SD)” value [1] was 23.65. The “Change from baseline in HOMA-β, Median” value [1] was 5.95, the “Change from baseline in UACR, ANCOVA LS mean (SE)” value [1] was -5.53 g/kg and the “Change from baseline in UACR, Mean (SD)” value [1] was -8720 mg/kg. For the same molecule, the “Change from baseline in UACR, Median” value [1] was -0.75 g/kg, the “Change from baseline in UGCR, ANCOVA LS mean (SE)” value [1] was 51.70 mg/mg and the “Change from baseline in UGCR, Mean (SD)” value [1] was 50.96 mg/mg. For the same molecule, the “Change from baseline in UGCR, Median” value [1] was 54.29 mg/mg, the “Change from baseline in adiponectin, ANCOVA LS mean (SE)” value [1] was 0.97 µg/mL and the “Change from baseline in adiponectin, Mean (SD)” value [1] was 0.83 µg/mL. The “Change from baseline in adiponectin, Median” value [1] was 0.61 µg/mL, the “Change from baseline in leptin, ANCOVA LS mean (SE)” value [1] was -2.70 ng/mL and the “Change from baseline in leptin, Mean (SD)” value [1] was -2.20 ng/mL. For the same molecule, the “Change from baseline in leptin, Median” value [1] was -1.21 ng/mL, the “HOMA-IR, Mean (SD)” value [1] was 1.99 and the “HOMA-IR, Median” value [1] was 1.51. The “HOMA-β, Mean (SD)” value [1] was 70.05, the “HOMA-β, Median” value [1] was 43.85 and the “Leptin, Mean (SD)” value [1] was 8.96 ng/mL. The “Leptin, Median” value [1] was 6.05 ng/mL, the “UACR, Mean (SD)” value [1] was 19480 mg/kg and the “UACR, Median” value [1] was 10.50 g/kg. The “UGCR, Mean (SD)” value [1] was 52.38 mg/mg, the “UGCR, Median” value [1] was 54.51 mg/mg and the “Change from baseline in HOMA-IR, ANCOVA LS mean difference” value [2] was −1.49. The “Change from baseline in HOMA-β, ANCOVA LS mean difference” value [2] was 22.40, the “Change from baseline in UACR, ANCOVA LS mean difference” value [2] was -13.39 g/kg and the “Change from baseline in UGCR, ANCOVA LS mean difference” value [2] was 47.66 mg/mg. The “Change from baseline in adiponectin, ANCOVA LS mean difference” value [2] was 1.04 µg/mL, the “Change from baseline in leptin, ANCOVA LS mean difference” value [2] was -2.36 ng/mL and the “Adiponectin, Mean (SD)” value [3] was 9.07 µg/mL. For the same molecule, the “Adiponectin, Median” value [3] was 7.57 µg/mL, the “Change from baseline in HOMA-IR, ANCOVA LS mean (SE)” value [3] was −1.57 and the “Change from baseline in HOMA-IR, Mean (SD)” value [3] was −1.52. For the same molecule, the “Change from baseline in HOMA-IR, Median” value [3] was −0.99, the “Change from baseline in HOMA-β, ANCOVA LS mean (SE)” value [3] was 7.97 and the “Change from baseline in HOMA-β, Mean (SD)” value [3] was 8.24. The “Change from baseline in HOMA-β, Median” value [3] was 6.10, the “Change from baseline in UACR, ANCOVA LS mean (SE)” value [3] was -4.31 g/kg and the “Change from baseline in UACR, Mean (SD)” value [3] was -6750 mg/kg. The “Change from baseline in UACR, Median” value [3] was -0.15 g/kg, the “Change from baseline in UGCR, ANCOVA LS mean (SE)” value [3] was 49.76 mg/mg and the “Change from baseline in UGCR, Mean (SD)” value [3] was 48.97 mg/mg. The “Change from baseline in UGCR, Median” value [3] was 50.09 mg/mg, the “Change from baseline in adiponectin, ANCOVA LS mean (SE)” value [3] was 1.25 µg/mL and the “Change from baseline in adiponectin, Mean (SD)” value [3] was 1.28 µg/mL. The “Change from baseline in adiponectin, Median” value [3] was 1.08 µg/mL, the “Change from baseline in leptin, ANCOVA LS mean (SE)” value [3] was -2.36 ng/mL and the “Change from baseline in leptin, Mean (SD)” value [3] was -2.07 ng/mL. The “Change from baseline in leptin, Median” value [3] was -0.84 ng/mL, the “HOMA-IR, Mean (SD)” value [3] was 1.94 and the “HOMA-IR, Median” value [3] was 1.58. The “HOMA-β, Mean (SD)” value [3] was 54.64, the “HOMA-β, Median” value [3] was 46.65 and the “Leptin, Mean (SD)” value [3] was 9.09 ng/mL. For the same molecule, the “Leptin, Median” value [3] was 6.89 ng/mL, the “UACR, Mean (SD)” value [3] was 21440 mg/kg and the “UACR, Median” value [3] was 9.00 g/kg. The “UGCR, Mean (SD)” value [3] was 50.40 mg/mg, the “UGCR, Median” value [3] was 50.80 mg/mg and the “Change from baseline in HOMA-IR, ANCOVA LS mean difference” value [4] was −1.94. The “Change from baseline in HOMA-β, ANCOVA LS mean difference” value [4] was 5.88, the “Change from baseline in UACR, ANCOVA LS mean difference” value [4] was -13.92 g/kg and the “Change from baseline in UGCR, ANCOVA LS mean difference” value [4] was 47.36 mg/mg. The “Change from baseline in adiponectin, ANCOVA LS mean difference” value [4] was 0.98 µg/mL, the “Change from baseline in leptin, ANCOVA LS mean difference” value [4] was -2.99 ng/mL and the “Body weight, Mean” value (week 6) was 66.81 kg. For the same molecule, the “Diastolic blood pressure, Mean” value (week 6) was 73.81 mmHg, the “FPG change from baseline, LS mean (SE)” value (week 6) was −27.78(2.47) mg/dL and the “FPG change from baseline, Mean (SD)” value (week 6) was −25.86(20.19) mg/dL. The “FPG, Mean (SD)” value (week 6) was 115.19(14.55) mg/dL, the “HDL-C change from baseline, LS mean” value (week 6) was 2.40 mg/dL and the “HDL-C change from baseline, Mean” value (week 6) was 2.07 mg/dL. For the same molecule, the “HDL-C, Mean” value (week 6) was 53.79 mg/dL, the “HbA1c change from baseline, LS mean (SE)” value (week 6) was −0.67(0.05) % p and the “HbA1c change from baseline, Mean (SD)” value (week 6) was −0.63(0.39) % p. For the same molecule, the “HbA1c, Mean (SD)” value (week 6) was 7.01(0.59) %, the “LDL-C change from baseline, LS mean” value (week 6) was 1.23 mg/dL and the “LDL-C change from baseline, Mean” value (week 6) was 1.55 mg/dL. The “LDL-C, Mean” value (week 6) was 96.18 mg/dL, the “Subjects achieving HbA1c target of <6.5%” value (week 6) was 12(14.81) % and the “Subjects achieving HbA1c target of <7%” value (week 6) was 40(49.38) %. For the same molecule, the “Subjects achieving therapeutic glycemic response (HbA1c change >0.5% or HbA1c<7%)” value (week 6) was 61(75.31) %, the “Systolic blood pressure, Mean” value (week 6) was 123.32 mmHg and the “body weight change from baseline, LS mean” value (week 6) was -2.03 kg. For the same molecule, the “body weight change from baseline, Mean” value (week 6) was -2.05 kg, the “diastolic blood pressure change from baseline, LS mean” value (week 6) was −2.99 mmHg and the “diastolic blood pressure change from baseline, Mean” value (week 6) was −2.65 mmHg.
